{"source": "patent US10676720B2", "about": "“Combinational use of mechanical manipulation and programin derivatives to increase Oct4, Sox2, Nanog or c-Myc expression in fibroblasts” (The Chinese University of Hong Kong, priority 2014, dated 2020)", "key": {"[1]": {"system": "Oct4, Sox2 and Nanog expression in embryoid-like cell bodies of CD34+ mouse fibroblasts", "experiment": "qPCR of pluripotent gene expression in embryoid-like bodies of mouse tail fibroblasts", "type": "cell-based", "settings": "for Oct4, Sox2 and Nanog expression (qPCR, FIG. 5): embryoid-like cell bodies of CD34+ mouse fibroblasts; for Oct4, Sox2 and Nanog expression (qPCR, FIG. 5) / Oct4, Sox2 and Nanog expression (qPCR, FIG. 4): vs untreated bodies and monolayer; for Oct4, Sox2 and Nanog expression (qPCR, FIG. 4): embryoid-like cell bodies treated with 5 μm", "method": "Materials required: Culture medium, supplemented with 10% FBS, 1% PS in DMEM (Invitrogen); Mouse ESC medium, supplemented with 1×B27 (Invitrogen), 1,000 U/mL Mouse Leukemia Inhibitory Factor (LIF) in DMEM/F12 culture medium (Invitrogen); Programin (frozen stock dissolved in DMSO); Working concentration=1-5 μM; Sterile 35 mm non-adhesive culture dish (SPL; 11035).\n1. Source mouse tail fibroblasts (passage 2-6 and in log phase of growth). Trypsinize the fibroblasts using standard protocols to obtain a suspension of the cells in culture medium.\n2. Seed the fibroblasts or other somatic cells onto a sterile 35 mm non-adhesive culture dish at density of 1×10^5-1×10^6 cells/cm^2 in 3 mL of culture medium.\n4. Gently pipette the culture media to prevent the cells from adhering to culture dish surface. Two sessions per day, 2 min for each session, must be performed. A standard 1 mL pipette and plastic tip was used for pipetting the cultures. The pipetting has to done very slowly (approximately 0.5-1 mL/second generates sufficient force to detach cells from non-adhesive culture dish surface).\n1. The cells would start to aggregate into embryoid-like bodies after day 1. These bodies will grow in numbers and size during the period of culture.\n2. Gently pipette the culture media to prevent the embryoid-like cell bodies from attaching on culture dish surface.\n3. Add 1 mL of fresh culture medium.\n1. Collect cell suspension and pellet cells by centrifugation at 800 rpm for 5 min. […] Wash cell once with mouse ESC medium and Programin (1-5 μM) or programin derivatives.\n2. Pellet the embryoid-like bodies again and re-suspend them in 3 mL mouse ESC medium and Programin or derivatives thereof.\n3. Seed the embryoid-like cell bodies onto a sterile 35 mm non-adhesive culture dish.\n4. Perform daily pipetting twice in a day to prevent the embryoid-like cell bodies from sticking to the culture dish.\n5. Add 1 mL of fresh mouse ESC medium on day 5 (day 2 post-Programin treatment).\n2. Harvest the embryoid-like cell bodies for qPCR analysis to validate expression of pluripotent genes: Oct4, Sox2 and Nanog expression. In addition, expression of other key stem cell-associated genes."}, "[2]": {"system": "Oct4, Sox2, KLF4, c-Myc and Nanog expression in HUCPV cells", "settings": "HUCPV embryoid-like bodies", "quoted_text": "Materials required: HUCPV medium, consisting of 15% ESQ-FBS (Invitrogen) and 1% PS in MEM/F12 (Invitrogen), Essential 6 (Invitrogen) supplemented with 100 ng/mL basic fibroblast growth factor (bFGF) (Invitrogen), Programin or derivatives thereof (frozen stock dissolved in DMSO); Working concentration=1-5 μM; Sterile non-adhesive 24-well culture plate (SPL; 32024).\nPrimary human umbilical cord peri-vascular (HUCPV) cells were maintained in HUCPV culture medium and passaged by trypsinization. Only HUCPV cells below cell passage 6 were used.\nHUCPV cultures are trypsinize and dissociate into single cells.\nThe dissociated HUCPV cells are re-suspend as 3×10^5 cells in 600 μL of HUCPV medium and seeded into each well of a non-adhesive 24-well culture plate.\nThe cells are incubated at 37° C. and 5% CO2 inside a cell incubator.\nOn following day, until the end of experiment, the cells were pipetted twice a day to prevent cells attaching onto culture plates which caused the HUCPV cells to aggregate into embryoid-like cell bodies.\n200 μL of fresh HUCPV medium were added to the cultures, every 2 days. […]\nThirty hours after Programin treatment, the Programin treated embryoid-like cell bodies were harvested for qPCR analysis to validate expression of the pluripotent genes: Oct4, Sox2 and Nanog. Other key stem cells-associate genes were also analyzed."}, "[3]": {"system": "CD34+ fibroblasts grown on adhesive culture dishes", "settings": "5 μM for 3 days", "quoted_text": "Tail fibroblasts extracted from the tail of Oct4-EGFP transgenic mice and stained with CD34 (FIG. 2). The cells were sorted by flow cytometry for only those expressing the surface marker CD34."}, "[4]": {"system": "Programin-treated embryoid-like cell bodies", "method": "Programin-treated embryoid-like cell bodies (1×10^6 cells/10 cm^2) were maintained as a suspension culture in DMEM/F12, 1000 U/mL LIF and 1×B27 on non-adhesive culture dishes for 4 days. The embryoid-like cell bodies were then transferred to culture dishes coated with 0.1% gelatin (FIG. 9A). 10 μM Wnt agonist (Cat #681665, Calbiochem) was added to the culture medium (DMEM/F12, 1000U/mL LIF and 1×B27)."}, "[5]": {"system": "Programin treated embryoid-like cell bodies", "settings": "treated embryoid-like bodies on 0.1% gelatin, B27 medium, after 3 days, more obvious after 7 days", "from_the_text": "Programin treated embryoid-like cell bodies (1×10^6 cells/10 cm^2) were maintained as a suspension culture in DMEM/F12, 1000U/mL LIF and 1×B27 on non-adhesive culture dishes for 4 days. The embryoid-like cell bodies were then transferred to culture dishes coated with 0.1% gelatin (FIG. 10A)."}, "[6]": {"system": "Oct4, Sox2, KLF4, c-Myc and Nanog expression in HUCPV cells", "settings": "HUCPV cells as a monolayer, 0-5 μM for 30 hours"}, "[7]": {"system": "Oct4, Nanog, Sox2, c-Myc and KLF4 expression in human skin fibroblasts", "settings": "5 μM, 4 days", "quoted_text": "Materials required: Fibroblast medium, supplemented with 15% FBS, 1% non-essential amino acids, 1% PS in Eagle's MEM medium (Invitrogen), human ESC medium, supplemented with 20% knockout serum replacement (Invitrogen), 2 mM L-glutamine, 0.1 mM non-essential amino acids, 0.1 mM mercaptoethanol, 10 ng/mL fibroblast growth factor-basic (bFGF), 1% PS in DMEM/F12 (Invitrogen), Programin or derivatives thereof (frozen stock dissolved in DMSO); Working concentration=5 μM, and sterile 35 mm non-adhesive culture dish (SPL; 11035).\nPrimary human skin fibroblasts were cultured in fibroblast medium and passaged by trypsinization. Passage 5 fibroblasts were used for experimentation.\nAfter dissociating the cultures into single cells with trypsin, 2×10^6 cells were resuspended in 3 mL fibroblast medium in non-adhesive 35 mm dish and maintained in 37° C. incubator with 5% CO2.\nSeveral hours later, aggregates were formed. Gently breakup excessively large aggregates by pipetting.\nThe next day, compact aggregates were formed. Again gentry breakup aggregates into smaller size (100-120 μm diameter) by pipetting.\nThree days after cell aggregate/embryoid-like cell body formation, change the medium to human ESC medium supplemented with 5 μM Programin or derivatives thereof.\nReplenish medium with fresh Programin or derivatives thereof 2 days after. […]"}, "[8]": {"system": "Oct4-EGFP expression in CD34+ fibroblasts from the tail of an Oct4-EGFP transgenic mouse", "settings": "embryoid-like cell bodies, 5 μM, 24, 48 and 69 hours", "from_the_text": "1. Harvest the embryoid-like cell bodies for PI and Hoechst staining for confocal analysis. The presence of green fluorescence and Hoechst staining in cells indicate the presence of live PIP cells expressing Oct4-EGFP.\nCD34^+ fibroblasts harvested from the tail of an Oct4-EGFP transgenic mouse were mechanically pipetted and maintained on non-adhesive culture plates so that the cells became aggregated to form embryoid-like bodies (FIG. 3A). The embryoid-like bodies in this study were stained with PI dye to determine the presence of dead cells (red arrows) and Hoechst dye for the presence of live cells (blue arrows) (FIGS. 3A-3D)."}}, "note": "Where “and” joins values, the source holds several entries; their conditions need not be identical. Identical values can stand only once. Like-named read-outs stand apart in the source and are kept apart here."}
{"smiles": "Oc1ncnc2[nH]ncc12", "note": "[Derivative 237]", "values": [{"measurement": "Oct4, Sox2 and Nanog expression (qPCR, FIG. 5)", "setting": "[1]", "result": "significantly increased"}]}
{"smiles": "Nc1nc2nc[nH]c2c(=S)[nH]1", "note": "[Derivative 400]", "values": [{"measurement": "Oct4, Sox2 and Nanog expression (qPCR, FIG. 5)", "setting": "[1]", "result": "significantly increased"}]}
{"smiles": "S=c1[nH]cnc2nc[nH]c12", "note": "[Derivative 594]", "values": [{"measurement": "Oct4, Sox2 and Nanog expression (qPCR, FIG. 5)", "setting": "[1]", "result": "significantly increased"}]}
{"smiles": "Nc1ncnc2nc[nH]c12", "note": "[Derivative 668]", "values": [{"measurement": "Oct4, Sox2 and Nanog expression (qPCR, FIG. 5)", "setting": "[1]", "result": "significantly increased"}]}
{"smiles": "Clc1nc(N2CCN(c3ccccc3)CC2)c2[nH]cnc2n1", "note": "[Derivative 957]", "values": [{"measurement": "Oct4, Sox2 and Nanog expression (qPCR, FIG. 5)", "setting": "[1]", "result": "significantly increased"}]}
{"smiles": "Clc1nc(-n2cccn2)c2nc[nH]c2n1", "note": "[Derivative 958]", "values": [{"measurement": "Oct4, Sox2 and Nanog expression (qPCR, FIG. 5)", "setting": "[1]", "result": "significantly increased"}]}
{"smiles": "Cc1cc(C)n(-c2nc(Cl)nc3[nH]cnc23)n1", "note": "[Derivative 959]", "values": [{"measurement": "Oct4, Sox2 and Nanog expression (qPCR, FIG. 5)", "setting": "[1]", "result": "significantly increased"}]}
{"smiles": "c1nc2nc(Nc3ccc(N4CCOCC4)cc3)nc(NC3CCCCC3)c2[nH]1", "note": "[programin, 2-(4-Morpholinoanilino)-6-cyclohexylamino-purine]", "values": [{"measurement": "Oct4, Sox2, KLF4, c-Myc and Nanog expression (qPCR)", "setting": "[2]; 1-5 μM for 30 hours, vs untreated embryoid-like body controls (0 μM)", "result": "significantly enhanced"}, {"measurement": "concentration that induced the highest level of Oct4, Sox2, Klf4 and Nanog", "setting": "[2]; 30 hours, 1-5 μM tested", "result": 4, "unit": "µM"}, {"measurement": "Oct4 expression", "setting": "[3]", "result": "did not express Oct4"}, {"measurement": "cell survival", "setting": "[3]", "result": "died"}, {"measurement": "fate of treated cells that were not aggregated", "setting": "[4]; following exposure to the Wnt agonist", "result": "underwent cell death"}, {"measurement": "formation of bone-like nodules", "setting": "[4]; treated embryoid-like bodies on 0.1% gelatin with 10 μM Wnt agonist, after 2-3 days", "result": "Bone-like nodules were evident"}, {"measurement": "Alizen Red s staining of the nodules", "setting": "[4]; treated embryoid-like bodies with 10 μM Wnt agonist", "result": "osteocytes"}, {"measurement": "formation of neurons", "setting": "[5]", "result": "Neurons were evident"}, {"measurement": "Oct4, Sox2, KLF4, c-Myc and Nanog expression (qPCR)", "setting": "[6]", "result": "did not activate"}, {"measurement": "expression of Oct4, Nanog, Sox2, c-Myc and KLF4 (qPCR)", "setting": "[7]; human skin fibroblast embryoid-like bodies, vs vehicle and monolayer", "result": "higher levels"}, {"measurement": "expression of pluripotency-associated genes Oct4, Sox2, Nanog, KLF4 and c-Myc", "setting": "[7]; human skin fibroblasts in a monolayer", "result": "not in a monolayer"}, {"measurement": "Oct4-EGFP expression (confocal microscope)", "setting": "[8]", "result": "detectable"}, {"measurement": "Oct4-EGFP expression (confocal microscope)", "setting": "[8]; listed as Programin", "result": "expressed Oct4-EGFP"}, {"measurement": "increase in Oct4, Sox2 and Nanog expression", "setting": "[1]; aggregates/embryoid-like bodies of fibroblasts, compared to controls (unaggregated, untreated cells)", "result": "25-200 fold and 20-200 fold"}, {"measurement": "increase in expression of E-cadherin", "setting": "[1]; compared to that of the initial fibroblast", "result": 5, "unit": "fold"}, {"measurement": "increase in Oct4, Sox2 and Nanog expression", "setting": "[1]; embryoid-like cell bodies exposed to 2-5 μM for 30 hours, compared to an untreated control fibroblast", "result": "25-200 fold"}, {"measurement": "Oct4, Sox2 and Nanog expression (qPCR, FIG. 5)", "setting": "[1]", "result": "higher"}, {"measurement": "Oct4, Sox2 and Nanog expression (qPCR, FIG. 4)", "setting": "[1]", "result": "highest"}, {"measurement": "Oct4, Sox2 and Nanog expression (qPCR, FIG. 4)", "setting": "[1]; listed as Programin", "result": "significantly enhanced"}, {"measurement": "reprogramming efficiency", "setting": "[1]; mouse somatic cells, takes 7 days to accomplish", "result": "approximately 20%"}]}
